Experimental data reported in patent EP4745138A1, “THIO-GLUTARIMIDO ISOINDOLINONE DERIVATIVE, BIFUNCTIONAL PROTEIN DEGRADER CONTAINING SAME, AND USES THEREOF” (Gluetacs Therapeutics (Shanghai) Co., Ltd., priority 2023, dated 2025).
Read-outs that look alike come from different tables or passages of the source.

Assays:
JEKO-1 = test: Tumor cell proliferation inhibition (CellTiter-Meiluncell Luminescent Cell Viability Assay); assay type: cell-based; conditions: Homo sapiens, 96 hours; for inhibition at 0.01 µM: 10 nM, read-out: Inhibition Rate at 10 nM (%); for inhibition at 0.5 µM: 500 nM, read-out: Inhibition Rate at 500 nM (%)
In short: (§1)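 Following overnight seeding, tumor cells received serial compound dilutions to final levels that included 10 nM and 500 nM. Viability was assessed by luminescence at the end of the specified exposure time. Cultures were kept at 37°C with 5% CO2.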

MM.1S = test: as above; assay type: cell-based; conditions: Homo sapiens, MM1.S, MM.1S, 96 hours; for inhibition at 0.01 µM: 10 nM, read-out: Inhibition Rate at 10 nM (%); for inhibition at 0.5 µM: 500 nM, read-out: Inhibition Rate at 500 nM (%)
In short: as §1

MV-4-11 = test: as above; assay type: cell-based; conditions: Homo sapiens, 96 hours; for inhibition at 0.01 µM: MV4-11, 10 nM, read-out: Inhibition Rate at 10 nM (%); for inhibition at 0.5 µM: MV4-11, 500 nM, read-out: Inhibition Rate at 500 nM (%)
In short: as §1

CDK2 = biological target: T1, CDK2 (Homo sapiens, UniProt P24941); test: Western blot, target protein degradation in hPBMC Cell; assay type: cell-based; conditions: treated at 50 nM and 500 nM, 24 hours
T1 construct: the expression of target proteins in cells; endogenous in cells; host or cells: hPBMC
Procedure: (§2) Conventional Western blot assay was performed to evaluate the effects of the compounds of the present disclosure on the expression of target proteins in cells.
(§3) (1) Cell Seeding and Protein Harvesting: The selected cells were processed according to the cell seeding procedure and protein harvesting procedure in Table II-2. Table II-2 Cell Seeding and Protein Harvesting Procedures
(§4) (2) To the collected supernatant, 5X SDS sample loading buffer was added, followed by denaturation at 95°C for 5 minutes. The denatured samples were then separated by SDS-PAGE electrophoresis on a polyacrylamide gel. Proteins were transferred to a nitrocellulose membrane (0.45 µm NC membrane), blocked with blocking buffer at room temperature for 1 hour, and subjected to antibody incubation and development procedures according to the antibody manufacturer's instructions (Cell Signaling Technology).
(§5) Half-Maximal Degradation Concentration value (the drug concentration required for degrading proteins by 50%, abbreviated as DC50) reads method: comparing the grayscale values of Western blot bands from drug-treated samples with those from blank DMSO-treated controls, and identifying the drug concentration range at which the grayscale value is half that of the DMSO-treated control bands.
(§6) DC50 values can be calculated using ImageJ software to measure grayscale values of Western blot bands from drug-treated samples. The concentration-response curve is fitted to estimate the drug concentration corresponding to half the grayscale value.
(§7) Target protein remaining (%) refers to the percentage of target protein remaining in cells after treatment with protein degrader compounds.
(§8) Calculation method for target protein remaining (%): Use ImageJ software to measure grayscale values of Western blot bands from drug (protein degrader)-treated samples. The grayscale value of drug-treated bands is divided by that of internal control protein bands, and the resulting quotient is normalized to obtain the relative percentage of remaining target protein after protein degrader treatment. Target protein degradation rate(%) = 1−target protein remaining(%). [formula]

[1] = biological target: T2, human Cereblon WT GST-tagged protein (Homo sapiens, UniProt Q96SW2); test: CRBN-binding affinity, HTRF (CEREBLON BINDING kit); conditions: for inhibition at 0.5 µM: read-out: Inhibition Rate at 0.5 µM (%); for inhibition at 2 µM: read-out: Inhibition Rate at 2 µM (%)
T2 construct: purchased CISBIO 64BDCRBNPEH
In short: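 Compounds are serially diluted in diluent #9 (1X) and added at final 2 µM and 0.5 µM. GST-tagged wild-type Cereblon is added next, followed by premixed thalidomide-red reagent and anti-GST Eu antibody, and HTRF signal is measured.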

SW620 = test: Tumor cell proliferation inhibition (CellTiter-Meiluncell Luminescent Cell Viability Assay); assay type: cell-based; conditions: Homo sapiens, 96 hours, Table I-6, IRAK4 inhibitors
In short: as §1

IRAK4 = biological target: T3, IRAK4 (Homo sapiens, UniProt Q9NWZ3); test: Western blot, target protein degradation in hPBMC Cell; assay type: cell-based; conditions: substrate protein remaining %, treated at 50 nM and 500 nM, 24 hours
T3 construct: endogenous in cells; host or cells: hPBMC
Procedure: as §2, §3, §4, §5, §6, §7, §8

BRG1 = biological target: T4, BRG1 (Homo sapiens, UniProt P51532); test: Western blot, target protein degradation in Molt-4 Cell; assay type: cell-based; conditions: substrate protein remaining %, treated at 500 nM and 50 nM, 24 hours
T4 construct: endogenous in cells; host or cells: Molt-4
Procedure: as §2, §3, §4, §5
(§9) DC50 values can be calculated using ImageJ software to measure grayscale values of Western blot bands from drug-treated samples. […]

BRM = biological target: T5, BRM (Homo sapiens, UniProt P51531); test: as above; assay type: cell-based; conditions: substrate protein remaining %, treated at 500 nM and 50 nM, 24 hours
T5 construct: endogenous in cells; host or cells: Molt-4
Procedure: as §2, §3, §4, §5, §9

Jurkat = test: Tumor cell proliferation inhibition (CellTiter-Meiluncell Luminescent Cell Viability Assay); conditions: Homo sapiens, 96 hours, Table I-5, designed based on the IRAK4 inhibitors, read-out: Inhibitory activity (IC50, nM) Jurkat
Procedure: The tumor cells used herein were cultured in a cell culture medium listed in table 3 at 37°C in an incubator with 5% CO2. Prior to experimentation, all cell lines used were correctly identified by STR profiling, and tested negative for mycoplasma contamination using a mycoplasma detection kit through routine screenings. Table 3. Tumor cells and cell culture medium used in the present disclosure
The IC50 values of the compounds of the present disclosure (including the compounds in Table 1, Table 2, and Examples) were determined using the CellTiter-Meiluncell Luminescent Cell Viability Assay Kit from Dalian Meilun Biotech Co., Ltd. The detailed procedure is as follows: Tumor cells were seeded in 96-well cell culture plates at the densities specified in Table 4. On the following day, the test compounds of the present disclosure were subjected to serial dilution. […] Subsequently, 0.5 µL of the test compound dilution was transferred into the 96-well plate containing the cells, with each well containing 100 µL of cell culture medium. […] Into the 96-well plate, the diluted test compounds and corresponding detection reagents were added, resulting in final test compound concentrations of 500 nM and 10 nM, respectively. The experimental procedure is described below using the diluted 2 µM test compound as an example.
0.5 µL of the aforementioned diluted compound of the present disclosure (including the compounds in Table 1, Table 2, and Examples) was added to the seeded cells in 100 µL of medium, yielding a final test compound concentration of 10 nM. After the cells were treated with the compounds of the present disclosure for a specified period, the cell viability assay reagent was added to the culture medium according to the kit's instructions to determine cell viability. […] All controls were treated using the same procedure as the compounds of the present disclosure. […] Seeding protocol and treatment time for tumor cells

[2] = Table I-8, SMARCA2/4 inhibitors

T2 sequence (Q96SW2 whole entry): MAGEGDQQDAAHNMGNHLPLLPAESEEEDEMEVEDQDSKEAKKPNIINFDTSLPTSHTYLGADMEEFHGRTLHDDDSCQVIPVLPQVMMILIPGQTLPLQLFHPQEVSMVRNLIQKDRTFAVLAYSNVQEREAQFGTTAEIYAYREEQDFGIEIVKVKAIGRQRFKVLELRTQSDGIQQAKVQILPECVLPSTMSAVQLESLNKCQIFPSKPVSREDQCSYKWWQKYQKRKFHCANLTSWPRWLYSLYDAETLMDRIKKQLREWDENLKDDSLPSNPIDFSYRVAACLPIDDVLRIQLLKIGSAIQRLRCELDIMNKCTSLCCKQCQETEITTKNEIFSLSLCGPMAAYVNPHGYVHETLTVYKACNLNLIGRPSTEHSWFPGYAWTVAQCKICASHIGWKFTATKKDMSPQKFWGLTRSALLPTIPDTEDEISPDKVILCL
T3 sequence (Q9NWZ3 whole entry): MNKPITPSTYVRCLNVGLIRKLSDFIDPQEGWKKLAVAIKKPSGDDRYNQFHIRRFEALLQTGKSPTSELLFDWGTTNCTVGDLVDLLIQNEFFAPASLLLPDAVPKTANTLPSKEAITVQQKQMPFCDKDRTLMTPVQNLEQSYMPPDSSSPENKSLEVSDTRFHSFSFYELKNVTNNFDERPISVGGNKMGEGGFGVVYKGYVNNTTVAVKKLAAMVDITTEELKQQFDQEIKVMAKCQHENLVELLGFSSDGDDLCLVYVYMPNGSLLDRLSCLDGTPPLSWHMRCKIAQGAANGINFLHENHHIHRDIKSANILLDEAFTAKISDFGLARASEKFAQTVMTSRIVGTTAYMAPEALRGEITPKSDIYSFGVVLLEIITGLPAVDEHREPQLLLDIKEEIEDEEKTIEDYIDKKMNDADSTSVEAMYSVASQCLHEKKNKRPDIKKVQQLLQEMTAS
T5 sequence (P51531 whole entry): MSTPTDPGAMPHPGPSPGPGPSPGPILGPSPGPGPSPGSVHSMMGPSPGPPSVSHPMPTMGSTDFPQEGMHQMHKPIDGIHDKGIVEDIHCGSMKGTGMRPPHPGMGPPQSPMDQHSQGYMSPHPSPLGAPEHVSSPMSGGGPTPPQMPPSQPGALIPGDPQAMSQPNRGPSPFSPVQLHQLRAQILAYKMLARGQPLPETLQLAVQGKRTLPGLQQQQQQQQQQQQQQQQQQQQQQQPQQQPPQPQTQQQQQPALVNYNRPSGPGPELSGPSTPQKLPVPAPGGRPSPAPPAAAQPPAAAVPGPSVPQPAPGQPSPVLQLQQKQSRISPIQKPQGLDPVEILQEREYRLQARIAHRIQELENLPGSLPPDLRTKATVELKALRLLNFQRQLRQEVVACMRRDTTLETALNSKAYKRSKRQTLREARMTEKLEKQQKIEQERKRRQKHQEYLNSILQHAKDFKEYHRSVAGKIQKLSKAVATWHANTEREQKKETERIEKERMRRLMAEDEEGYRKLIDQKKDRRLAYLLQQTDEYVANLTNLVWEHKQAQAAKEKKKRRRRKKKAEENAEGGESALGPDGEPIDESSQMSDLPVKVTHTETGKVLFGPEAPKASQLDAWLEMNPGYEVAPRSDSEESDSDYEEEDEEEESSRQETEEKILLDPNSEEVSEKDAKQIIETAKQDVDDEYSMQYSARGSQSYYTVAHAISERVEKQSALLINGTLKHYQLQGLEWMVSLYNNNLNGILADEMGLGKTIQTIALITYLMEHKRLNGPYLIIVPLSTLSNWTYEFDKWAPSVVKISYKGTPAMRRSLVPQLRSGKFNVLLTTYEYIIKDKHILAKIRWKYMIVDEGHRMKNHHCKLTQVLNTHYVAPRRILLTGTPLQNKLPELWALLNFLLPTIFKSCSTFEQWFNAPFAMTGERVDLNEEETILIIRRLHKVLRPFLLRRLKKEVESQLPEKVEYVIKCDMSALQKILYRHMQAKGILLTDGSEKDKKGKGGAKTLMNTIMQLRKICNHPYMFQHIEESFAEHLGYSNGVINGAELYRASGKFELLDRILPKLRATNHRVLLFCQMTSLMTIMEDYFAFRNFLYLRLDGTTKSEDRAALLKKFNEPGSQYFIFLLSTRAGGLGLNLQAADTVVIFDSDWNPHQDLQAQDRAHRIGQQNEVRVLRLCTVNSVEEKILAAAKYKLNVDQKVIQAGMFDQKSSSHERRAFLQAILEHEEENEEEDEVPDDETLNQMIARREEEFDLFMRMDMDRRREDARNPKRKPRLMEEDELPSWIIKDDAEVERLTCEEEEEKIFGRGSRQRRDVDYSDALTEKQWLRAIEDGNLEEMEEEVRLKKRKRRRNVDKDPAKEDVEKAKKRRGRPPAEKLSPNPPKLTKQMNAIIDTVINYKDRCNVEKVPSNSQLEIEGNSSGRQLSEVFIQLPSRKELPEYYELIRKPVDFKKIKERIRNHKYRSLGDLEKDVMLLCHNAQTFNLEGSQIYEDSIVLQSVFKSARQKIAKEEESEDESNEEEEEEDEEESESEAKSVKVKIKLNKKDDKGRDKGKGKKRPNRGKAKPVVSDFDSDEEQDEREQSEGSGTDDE
T4 sequence (P51532 whole entry): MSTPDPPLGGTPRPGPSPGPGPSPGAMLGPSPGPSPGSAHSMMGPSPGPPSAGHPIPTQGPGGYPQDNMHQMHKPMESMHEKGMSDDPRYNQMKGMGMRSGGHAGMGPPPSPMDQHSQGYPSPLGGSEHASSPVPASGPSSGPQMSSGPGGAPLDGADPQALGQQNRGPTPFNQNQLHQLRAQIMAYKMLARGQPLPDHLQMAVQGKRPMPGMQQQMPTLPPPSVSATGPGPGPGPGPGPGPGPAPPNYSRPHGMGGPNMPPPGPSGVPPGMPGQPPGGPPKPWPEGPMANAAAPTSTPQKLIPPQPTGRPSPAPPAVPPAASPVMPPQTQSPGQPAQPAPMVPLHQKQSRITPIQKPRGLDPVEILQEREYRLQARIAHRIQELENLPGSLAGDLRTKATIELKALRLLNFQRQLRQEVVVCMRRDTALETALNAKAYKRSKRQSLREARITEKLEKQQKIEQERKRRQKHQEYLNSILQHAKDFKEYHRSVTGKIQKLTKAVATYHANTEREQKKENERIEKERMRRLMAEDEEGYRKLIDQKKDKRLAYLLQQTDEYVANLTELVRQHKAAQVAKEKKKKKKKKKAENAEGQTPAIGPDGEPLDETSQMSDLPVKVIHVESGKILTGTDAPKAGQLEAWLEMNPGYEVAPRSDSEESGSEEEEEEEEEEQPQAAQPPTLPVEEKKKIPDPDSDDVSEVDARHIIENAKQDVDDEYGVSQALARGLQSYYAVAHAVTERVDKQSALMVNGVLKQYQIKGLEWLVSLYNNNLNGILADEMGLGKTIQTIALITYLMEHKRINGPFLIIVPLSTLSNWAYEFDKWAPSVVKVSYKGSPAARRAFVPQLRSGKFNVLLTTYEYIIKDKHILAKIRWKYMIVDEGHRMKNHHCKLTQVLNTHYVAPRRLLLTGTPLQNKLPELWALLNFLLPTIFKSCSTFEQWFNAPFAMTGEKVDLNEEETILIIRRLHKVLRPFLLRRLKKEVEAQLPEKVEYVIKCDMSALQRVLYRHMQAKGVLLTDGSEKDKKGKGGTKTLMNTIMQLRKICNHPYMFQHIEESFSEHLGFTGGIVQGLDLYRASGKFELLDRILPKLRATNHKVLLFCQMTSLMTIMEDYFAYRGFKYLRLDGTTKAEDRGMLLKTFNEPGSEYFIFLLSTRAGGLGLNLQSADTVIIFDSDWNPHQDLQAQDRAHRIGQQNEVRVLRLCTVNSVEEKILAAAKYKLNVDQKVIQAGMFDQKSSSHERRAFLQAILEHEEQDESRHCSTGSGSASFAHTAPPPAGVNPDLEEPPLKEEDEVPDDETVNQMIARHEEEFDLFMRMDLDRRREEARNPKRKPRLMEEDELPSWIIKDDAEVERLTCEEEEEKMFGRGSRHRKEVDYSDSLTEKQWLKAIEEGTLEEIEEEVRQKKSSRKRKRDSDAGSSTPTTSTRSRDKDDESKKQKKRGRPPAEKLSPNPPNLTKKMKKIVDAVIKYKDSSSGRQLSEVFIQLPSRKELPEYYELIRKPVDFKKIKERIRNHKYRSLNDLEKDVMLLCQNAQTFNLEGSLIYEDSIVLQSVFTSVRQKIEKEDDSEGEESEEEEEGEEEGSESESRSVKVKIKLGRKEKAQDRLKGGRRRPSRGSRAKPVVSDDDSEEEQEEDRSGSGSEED

| Structure (SMILES) | inhibition at 0.01 µM (MM.1S; Table I-13, CDK2 inhibitors) | inhibition at 0.5 µM (MM.1S; Table I-13, CDK2 inhibitors) | inhibition at 0.01 µM (MV-4-11; Table I-13, CDK2 inhibitors) | inhibition at 0.5 µM (MV-4-11; Table I-13, CDK2 inhibitors) | Degradation of substrate protein CDK2 (CDK2) | inhibition at 0.5 µM [1] | inhibition at 2 µM [1] | further results |
| --- | --- | --- | --- | --- | --- | --- | --- | --- |
| Cc1ccsc1C(=O)n1nc(Nc2ccc(S(=O)(=O)N3CCN(Cc4ccc5c(c4)C(=S)N(C4CCC(=O)NC4=O)C5)CC3)cc2)nc1N (stereo not shown) [GT-08798, 3-(6-((4-((4-((5-amino-1-(3-methylthiophene-2-carbonyl)-1H-1,2,4-triazol-3-yl)amino)phenyl)sulfony 1)piperazin-1-yl)methyl)-1-thioxoisoindolin-2-yl)piperidine-2,6-dione] | 10 to 20% | 50 to 60% | 20 to 30% | 60 to 70% | Yes | 53 to 60% | 60 to 80% | inhibition at 0.01 µM (JEKO-1; Table I-13, CDK2 inhibitors): 10 to 20%; inhibition at 0.5 µM (JEKO-1; Table I-13, CDK2 inhibitors): 60 to 70% |
| Cc1ccsc1C(=O)n1nc(Nc2ccc(S(=O)(=O)N3CCN(Cc4ccc5c(c4)CN(C4CCC(=O)NC4=O)C5=S)CC3)cc2)nc1N (stereo not shown) [GT-08792, 3-(5-((4-((4-((5-amino-1-(3-methylthiophene-2-carbonyl)-1H-1,2,4-triazol-3-yl)amino)phenyl)sulfony 1)piperazin-1-yl)methyl)-1-thioxoisoindolin-2-yl)piperidine-2,6-dione] | 10 to 20% | 60 to 70% | 0 to 5% | 50 to 60% | Yes | 60 to 80% | 60 to 80% |  |
| O=C1CCC(N2Cc3cc(CN4CCC(n5cc(NC(=O)c6coc(-c7ccnc(NCC(F)(F)F)c7)n6)c(C(F)F)n5)CC4)ccc3C2=S)C(=O)N1 (stereo not shown) [GT-05292, N-(3-(difluoromethyl)-1-(1-((2-(2,6-dioxopiperidin-3-yl)-1-thioxoisoindolin-5-yl)methyl)piperidin-4-yl)-1H-pyrazol-4-yl)-2-(2-((2,2,2-trifluoroethyl)amino)pyridin-4-yl)oxazole-4-carboxamide] |  |  |  |  |  | 20 to 30% | 60 to 80% | inhibition at 0.01 µM (JEKO-1; Table I-6, IRAK4 inhibitors): 30 to 40%; inhibition at 0.5 µM (JEKO-1; Table I-6, IRAK4 inhibitors): 80 to 100%; inhibition at 0.01 µM (MM.1S; Table I-6, IRAK4 inhibitors): 50 to 60%; inhibition at 0.5 µM (MM.1S; Table I-6, IRAK4 inhibitors): 80 to 100%; inhibition at 0.01 µM (MV-4-11; Table I-6, IRAK4 inhibitors): 80 to 100%; inhibition at 0.5 µM (MV-4-11; Table I-6, IRAK4 inhibitors): 80 to 100%; inhibition at 0.01 µM (SW620; SW-620, 10 nM, read-out: Inhibition Rate at 10 nM (%)): 70 to 80%; inhibition at 0.5 µM (SW620; SW-620, 500 nM, read-out: Inhibition Rate at 500 nM (%)): 80 to 100%; Degradation of substrate protein IRAK4 (IRAK4): A (0% ≤ substrate protein remaining % ≤ 80%) |
| Nc1nnc(-c2ccccc2O)cc1N1CCN(Cc2ccc3c(c2)C(=S)N(C2CCC(=O)NC2=O)C3)CC1 (stereo not shown) [GT-08787, 3-(6-((4-(3-amino-6-(2-hydroxyphenyl)pyridazin-4-yl)piperazin-1-yl)methyl)-1-thioxoisoindolin-2-yl)piperidine-2,6-dione] |  |  |  |  |  | 60 to 80% | 80 to 100% | inhibition at 0.01 µM (MM.1S; [2]): 30 to 40%; inhibition at 0.5 µM (MM.1S; [2]): 40 to 50%; Degradation of substrate protein BRG1 (BRG1): A (0% ≤ substrate protein remaining % ≤ 80%); Degradation of substrate protein BRM (BRM): A (0% ≤ substrate protein remaining % ≤ 80%) |
| COc1cc2nn(C3CCN(Cc4cccc5c4CN(C4CCC(=O)NC4=O)C5=S)CC3)cc2cc1NC(=O)c1cccc(C(F)(F)F)n1 (stereo not shown) [GT-04950, N-(2-(1-((2-(2,6-dioxopiperidin-3-yl)-1-thioxoisoindolin-4-yl)methyl)piperidin-4-yl)-6-methoxy-2H-indazol-5-yl)-6-(trifluoromethyl)picolinamide] |  |  |  |  |  | 40 to 53% | 60 to 80% | IC50 (Jurkat): 500 to 1000 nM; IC50 (MM.1S; Table I-5, designed based on the IRAK4 inhibitors, read-out: Inhibitory activity (IC50, nM) MM.1S): 100 to 500 nM |
